Experimental data: the supplement of paper PMC10307832

Legend:
Assay in all cases: relative viability (nuclei count vs DMSO), 5 days (fraction); higher = more cells survive
Venetoclax + AZD7762 = compound: CC1(C)CCC(CN2CCN(c3ccc(C(=O)NS(=O)(=O)c4ccc(NCC5CCOCC5)c([N+](=O)[O-])c4)c(Oc4cnc5[nH]ccc5c4)c3)CC2)=C(c2ccc(Cl)cc2)C1 [Venetoclax] + NC(=O)Nc1cc(-c2cccc(F)c2)sc1C(=O)N[C@H]1CCCNC1 [AZD7762] (partner 0.2 µM)
Summary of the method: (§1)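 The day after seeding in 1536-well plates, lung cancer cell lines were treated by pin tool with a single drug, or with a fixed anchor-drug dose together with five library-drug doses (not always all listed) in √10 steps. After 5 days, a combined fix-and-stain solution (final 0.05% Triton X-100, 1% formaldehyde, 1 ug/ml Hoechst) was added. Nuclei counted on 4× images gave relative viability as treated counts over vehicle counts, reported as the median of duplicate plates.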

[1] = compound: Cn1cnc2c(F)c(Nc3ccc(Br)cc3Cl)c(C(=O)NOCCO)cc21 [Selumetinib] + CC(=O)c1c(C)c2cnc(Nc3ccc(N4CCNCC4)cn3)nc2n(C2CCCC2)c1=O [Palbociclib] (partner 0.5 µM)
Summary of the method: as §1

Venetoclax + Palbociclib = compound: CC1(C)CCC(CN2CCN(c3ccc(C(=O)NS(=O)(=O)c4ccc(NCC5CCOCC5)c([N+](=O)[O-])c4)c(Oc4cnc5[nH]ccc5c4)c3)CC2)=C(c2ccc(Cl)cc2)C1 [Venetoclax] + CC(=O)c1c(C)c2cnc(Nc3ccc(N4CCNCC4)cn3)nc2n(C2CCCC2)c1=O [Palbociclib] (partner 0.5 µM)
Summary of the method: as §1

Venetoclax + Luminespib = compound: CC1(C)CCC(CN2CCN(c3ccc(C(=O)NS(=O)(=O)c4ccc(NCC5CCOCC5)c([N+](=O)[O-])c4)c(Oc4cnc5[nH]ccc5c4)c3)CC2)=C(c2ccc(Cl)cc2)C1 [Venetoclax] + CCNC(=O)c1noc(-c2cc(C(C)C)c(O)cc2O)c1-c1ccc(CN2CCOCC2)cc1 [Luminespib] (partner 0.01 µM)
Summary of the method: as §1

Cell Line | relative viability (Venetoclax + AZD7762; first compound 0.01 µM) | relative viability (Venetoclax + AZD7762; first compound 0.03162 µM) | relative viability (Venetoclax + AZD7762; first compound 0.1 µM) | relative viability (Venetoclax + AZD7762; first compound 0.3162 µM) | relative viability (Venetoclax + AZD7762; first compound 1 µM) | relative viability ([1]; first compound 0.02 µM) | relative viability ([1]; first compound 0.06325 µM) | relative viability ([1]; first compound 0.2 µM) | relative viability ([1]; first compound 0.6325 µM) | relative viability (Venetoclax + Palbociclib; first compound 0.01 µM) | relative viability (Venetoclax + Palbociclib; first compound 0.03162 µM) | relative viability (Venetoclax + Palbociclib; first compound 0.1 µM) | relative viability (Venetoclax + Palbociclib; first compound 0.3162 µM) | relative viability (Venetoclax + Palbociclib; first compound 1 µM) | relative viability (Venetoclax + Luminespib; first compound 0.01 µM) | relative viability (Venetoclax + Luminespib; first compound 0.03162 µM) | relative viability (Venetoclax + Luminespib; first compound 0.1 µM) | relative viability (Venetoclax + Luminespib; first compound 0.3162 µM) | relative viability (Venetoclax + Luminespib; first compound 1 µM)
HCC-78 | 0.667 | 0.818 | 0.738 | 0.577 | 0.539 | 0.486 | 0.488 | 0.498 | 0.423 | 0.456 | 0.534 | 0.437 | 0.433 | 0.469 |  |  |  |  | 
HOP-62 | 0.486 | 0.841 | 0.522 | 0.726 | 0.494 | 0.469 | 0.489 | 0.458 | 0.37 | 0.43 | 0.462 | 0.373 | 0.427 | 0.4 | 0.945 | 0.892 | 0.926 | 0.8 | 0.842
NCI-H1623 |  |  |  |  |  |  |  |  |  |  |  |  |  |  | 0.545 | 0.502 | 0.566 | 0.6 | 0.464
NCI-H3122 | 1.07 | 0.997 | 0.909 | 0.954 | 1.03 | 0.188 | 0.139 | 0.132 | 0.153 | 0.249 | 0.226 | 0.185 | 0.18 | 0.204 | 0.0697 | 0.0939 | 0.105 | 0.0864 | 0.101
RERF-LC-KJ | 0.801 | 1.09 | 1.07 | 1.03 | 0.945 | 1.03 | 0.946 | 0.84 | 0.908 | 1.05 | 1.08 | 0.988 | 1.03 | 1.03 | 1.19 | 1.19 | 1.22 | 1.19 | 1.08
NCI-H1703 | 0.157 | 0.136 | 0.122 | 0.129 | 0.124 |  |  |  |  |  |  |  |  |  |  |  |  |  | 
NCI-H1563 |  |  |  |  |  |  |  |  |  |  |  |  |  |  | 0.548 | 0.546 | 0.499 | 0.447 | 0.577
HCC-366 | 0.332 | 0.202 | 0.214 | 0.25 | 0.141 | 0.3 | 0.31 | 0.256 | 0.143 | 0.391 | 0.359 | 0.314 | 0.37 | 0.326 |  |  |  |  | 
NCI-H2228 |  |  |  |  |  | 0.566 | 0.516 | 0.669 | 0.481 | 0.708 | 0.776 | 0.566 | 0.687 | 0.746 | 0.162 | 0.158 | 0.15 | 0.128 | 0.147
NCI-H1650 |  |  |  |  |  | 0.312 | 0.26 | 0.357 | 0.27 | 0.315 | 0.364 | 0.323 | 0.419 | 0.306 | 0.196 | 0.202 | 0.2 | 0.189 | 0.207
COR-L23 |  |  |  |  |  | 0.311 | 0.289 | 0.301 | 0.241 | 0.326 | 0.283 | 0.184 | 0.286 | 0.282 | 0.469 | 0.669 | 0.728 | 0.71 | 0.651
NCI-H1648 |  | 0.69 | 0.649 | 0.758 | 0.527 |  | 0.307 | 0.237 | 0.296 |  | 0.283 | 0.255 | 0.249 | 0.225 |  |  |  |  | 
SK-LU-1 |  |  |  |  |  | 0.381 | 0.353 | 0.362 | 0.263 | 0.405 | 0.403 | 0.35 | 0.403 | 0.372 | 0.188 | 0.21 | 0.197 | 0.198 | 0.197
COR-L 105 |  |  |  |  |  | 0.449 | 0.404 | 0.383 | 0.392 | 0.414 | 0.399 | 0.384 | 0.365 | 0.413 | 1.03 | 0.61 | 0.522 | 0.712 | 0.625
NCI-H2009 |  |  |  |  |  | 0.15 | 0.136 | 0.122 | 0.143 | 0.264 | 0.228 | 0.258 | 0.216 | 0.203 | 0.987 | 1.08 | 0.937 | 1 | 0.92
NCI-H2023 |  |  |  |  |  | 0.355 | 0.299 | 0.304 | 0.339 | 0.382 | 0.338 | 0.349 | 0.329 | 0.33 | 0.744 | 0.911 | 0.859 | 0.784 | 0.676
SW 1573 |  |  |  |  |  | 0.337 | 0.294 | 0.365 | 0.312 | 0.337 | 0.422 | 0.377 | 0.36 | 0.362 | 0.234 | 0.152 | 0.153 | 0.385 | 0.215
NCI-H661 |  |  |  |  |  | 0.415 | 0.384 | 0.418 | 0.382 | 0.401 | 0.411 | 0.396 | 0.392 | 0.392 | 0.924 | 0.956 | 0.894 | 0.822 | 0.871
SK-MES-1 |  |  |  |  |  | 0.304 | 0.322 | 0.315 | 0.264 | 0.329 | 0.336 | 0.327 | 0.326 | 0.286 | 0.82 | 0.789 | 0.806 | 0.822 | 0.728
NCI-H520 |  |  |  |  |  | 0.211 | 0.236 | 0.237 | 0.258 | 0.236 | 0.217 |  | 0.204 | 0.201 | 0.258 | 0.209 | 0.221 | 0.209 | 0.187
NCI-H596 | 1.12 | 0.975 | 1.27 | 1.12 | 1.2 |  |  |  |  |  |  |  |  |  | 1.03 | 0.947 | 1.03 | 0.994 | 1.06
